Entries after “also recorded” stand apart in the source; their conditions may differ. Where a SMILES comes first, the peptide text is derived from it. Bridges are numbered along the chain shown (N, C = ends). [ ]: non-standard residue; d: D form. The star is where a group is joined. ξ: configuration not given here. X1 = OC[C@H]1O[C@@H](O[C@H]2[C@H](O)[C@@H](O)[C@H](*)O[C@@H]2CO)[C@H](O)[C@@H](O)[C@H]1O; βGlc = OC[C@H]1O[C@@H](*)[C@H](O)[C@@H](O)[C@@H]1O; d1Nal = N[C@H](Cc1cccc2ccccc12)C(=O)O; ξ1Nal = NC(Cc1cccc2ccccc12)C(=O)O
Columns and labels:
[1] = test system: male and female CD-1 mice; assay: Tail flick (TF) antinociception test; assay type: in vivo; details: for rank order of effectiveness, TF AUC: main effects of drug; for rank order of potency (ED50), TF: mg/kg calculations; for TF antinociception AUC: top dose (5.6 mg/kg), mean male and female
Description: Tail Flick (TF): CD1 mice were used for this test. The latency to withdraw the tail from a heat source was automatically measured (IITC, Woodland Hills, CA). […] Percent Maximum Possible Effect (% MPE) was determined as [(latency-baseline latency)/(9-baseline latency)]*100.
Statistics/Data Analysis: Data were analyzed with […] PRISM software (GraphPad Software, San Diego CA).

[2] = target: T1, mu opioid receptor (MOR) (Homo sapiens, UniProt P35372); assay: Receptor binding, mu opioid receptor (NIMH PDSP); details: for reduction of MOR affinity by glycosylation: relative to unglycosylated reference; for MOR affinity, in words: comparison among analogs
T1 construct: NIMH Psychoactive Drug Screening Program (PDSP), University of North Carolina at Chapel Hill (performed the assay)
T1 sequence (P35372 whole entry): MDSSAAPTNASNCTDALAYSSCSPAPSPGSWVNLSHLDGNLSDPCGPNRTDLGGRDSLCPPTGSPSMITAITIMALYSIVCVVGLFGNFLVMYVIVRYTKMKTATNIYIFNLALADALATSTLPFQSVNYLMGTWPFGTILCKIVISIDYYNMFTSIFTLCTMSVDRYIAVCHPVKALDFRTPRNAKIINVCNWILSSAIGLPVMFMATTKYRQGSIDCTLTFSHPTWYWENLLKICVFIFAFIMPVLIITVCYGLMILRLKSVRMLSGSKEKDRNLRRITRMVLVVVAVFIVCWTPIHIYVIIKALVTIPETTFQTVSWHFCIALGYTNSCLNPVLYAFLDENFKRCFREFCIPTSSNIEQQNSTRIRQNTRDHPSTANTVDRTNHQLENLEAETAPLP
Description: (§1) Receptor Binding Profiles and Ki: The receptor binding an Ki determinations were generously provided by the National Institute of Mental Health's Psychoactive Drug Screening Program (PDSP), Directed by Bryan L. Roth at the University of North Carolina at Chapel Hill and Project Officer Jamie Driscoll at NIMH, Bethesda MD, USA.

[3] = test system: male and female DBA mice; assay: Hot plate (HP) antinociception test; details: for rank order of potency (ED50), HP: both mg/kg and μmol/kg values; for HP antinociception, in words: s.c., 5 hr test
[4] = target: T2, kappa opioid receptor (KOR) (Homo sapiens, UniProt P41145); assay: Receptor binding, kappa opioid receptor (NIMH PDSP); details: for kap/mu: ratio of KOR-to-MOR binding (Ki)
T2 construct: NIMH Psychoactive Drug Screening Program (PDSP), University of North Carolina at Chapel Hill (performed the assay)
T2 sequence (P41145 whole entry): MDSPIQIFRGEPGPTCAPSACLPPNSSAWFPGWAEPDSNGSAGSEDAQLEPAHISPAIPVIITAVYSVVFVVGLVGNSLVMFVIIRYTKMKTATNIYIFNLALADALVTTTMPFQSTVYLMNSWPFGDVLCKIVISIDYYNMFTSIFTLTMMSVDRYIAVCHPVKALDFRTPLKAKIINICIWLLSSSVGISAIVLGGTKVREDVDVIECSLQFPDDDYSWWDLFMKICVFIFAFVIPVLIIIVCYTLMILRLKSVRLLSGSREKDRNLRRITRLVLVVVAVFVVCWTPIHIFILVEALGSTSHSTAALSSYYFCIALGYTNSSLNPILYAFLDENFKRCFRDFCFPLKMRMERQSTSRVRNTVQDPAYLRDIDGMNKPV
Description: as §1

[5] = target: T3, delta opioid receptor (DOR) (Homo sapiens, UniProt P41143); assay: Receptor binding, delta opioid receptor (NIMH PDSP)
T3 construct: NIMH Psychoactive Drug Screening Program (PDSP), University of North Carolina at Chapel Hill (performed the assay)
T3 sequence (P41143 whole entry): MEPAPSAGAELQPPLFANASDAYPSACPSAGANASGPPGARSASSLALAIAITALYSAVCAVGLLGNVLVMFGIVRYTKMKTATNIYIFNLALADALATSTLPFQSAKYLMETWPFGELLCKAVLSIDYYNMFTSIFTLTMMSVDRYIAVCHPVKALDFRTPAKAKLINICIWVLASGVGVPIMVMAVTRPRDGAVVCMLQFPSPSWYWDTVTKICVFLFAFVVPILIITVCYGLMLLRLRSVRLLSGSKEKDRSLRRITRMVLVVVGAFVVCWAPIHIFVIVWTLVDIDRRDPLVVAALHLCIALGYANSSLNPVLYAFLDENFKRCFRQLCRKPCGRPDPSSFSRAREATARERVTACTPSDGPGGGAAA
Description: as §1

[6] = test system: delta opioid receptor (DOR); assay: as above; details: ratio of DOR-to-MOR binding (Ki)
Description: as §1

[7] = i.v.; cited from earlier work
[8] = test system: male CD-1 mice; assay: Conditioned place preference (CPP)
Description: Conditioned Place Preference (CPP): Male CD-1 mice were tested for CPP in a modified 2-chamber apparatus (Noldus, Leesburg, VA). The 20×20 cm chambers had distinct visual and tactile cues: 1) vertical striped walls with circular holes in a metal floor or 2) gray walls with clover-shaped holes. […] Eight arenas were counterbalanced for the cue pattern in the left and right chamber. Tests were conducted in 4 phases: habituation (days 1-2, 30′), baseline (day 4-5, 20′), conditioning (days 6-8, 40′), and testing (day 9, 20′). Two sessions per day were conducted at each phase (9:30 and 10:30 am) and animals were placed in the left chamber in session 1 and the right in session 2. For baseline and testing, both chambers were freely accessible. […] These protocols balanced exposure to the chambers, and for conditioning, minimized drug carry-over effects. CPP was determined as the change in time spent on the drug-associated side minus the time spent on that same side during baseline tests.
After two habituation and two baseline sessions, three conditioning days were conducted. […] The following day, a test session was conducted and CPP was determined as the change in time spent on the drug-associated side minus the time spent on that same side during baseline tests.

Row | Structure (SMILES) | rank order of effectiveness, TF AUC [1] | rank order of potency (ED50), TF [1] | reduction of MOR affinity by glycosylation [2] | rank order of potency (ED50), HP [3] | HP antinociception, in words [3] | MOR affinity, in words [2] | KOR binding, in words [4] | Ki [5] [nM] | kap/mu [4] | del/mu [6] | DOR binding, in words [5] | further results
1 | NC(=O)[C@H](CO[C@@H]1O[C@H](CO)[C@@H](O)[C@H](O)[C@H]1O)NC(=O)[C@@H]1CCC(=O)NCCCC[C@@H](NC(=O)[C@@H](N)Cc2ccc(O)cc2)C(=O)N[C@@H](Cc2c[nH]c3ccccc23)C(=O)N[C@@H](Cc2ccccc2)C(=O)N1 [Analog A1, Tyr-c[D-Lys-Trp-Phe-Glu]-Ser(β-Glc)-NH2] | A2>A7>A1>morphine>ZH853 | A2>A7>A1>morphine >ZH853 | approximately 5 fold | A2>A7>A1>ZH853>morphine | not significantly greater than those of reference compounds |  |  |  |  |  |  | 
2 | NC(=O)[C@H](CO[C@@H]1O[C@H](CO)[C@@H](O[C@@H]2O[C@H](CO)[C@H](O)[C@H](O)[C@H]2O)[C@H](O)[C@H]1O)NC(=O)[C@@H]1CCC(=O)NCCCC[C@@H](NC(=O)[C@@H](N)Cc2ccc(O)cc2)C(=O)N[C@@H](Cc2c[nH]c3ccccc23)C(=O)N[C@@H](Cc2ccccc2)C(=O)N1 [Analog A2, Tyr-c[D-Lys-Trp-Phe-Glu]-Ser(β-Lact)-NH2] | A2>A7>A1>morphine>ZH853 | A2>A7>A1>morphine >ZH853 | approximately 5 fold | A2>A7>A1>ZH853>morphine | robust antinociception; also recorded: significantly greater AUC |  |  |  |  |  |  | TF antinociception (full) ([1]; 1.8 mg/kg): 100 % MPE; dose lower than morphine for equal total TF antinociception, mg/kg basis ([1]; 1.8 mg/kg A2 matched to 10 mg/kg morphine): 5.55 fold; TF antinociception, in words ([1]; s.c., time course and AUC): remained high at the 5-hour limit of the test; TF antinociception AUC [1]: > 25000
3 | NC(=O)[C@H](CO[C@@H]1O[C@H](CO)[C@@H](O)[C@H](O)[C@H]1O)NC(=O)CNC(=O)[C@@H]1CCC(=O)NCCCC[C@@H](NC(=O)[C@@H](N)Cc2ccc(O)cc2)C(=O)N[C@@H](Cc2c[nH]c3ccccc23)C(=O)N[C@@H](Cc2ccccc2)C(=O)N1 [Analog A3] |  |  |  |  |  | lowest MOR affinity | increased KOR affinity | ≥ 10000 |  |  |  | 
4 | NC(=O)[C@H](CO[C@@H]1O[C@H](CO)[C@@H](O)[C@H](O)[C@H]1O)NC(=O)[C@@H]1CCC(=O)NCCCC[C@@H](NC(=O)[C@@H](N)Cc2ccc(O)cc2)C(=O)N[C@H](Cc2cccc3ccccc23)C(=O)N[C@@H](Cc2ccccc2)C(=O)N1 [Analog A4] (H-Y[dK][d1Nal]FES(βGlc)-NH2; lactam 2-5) |  |  |  |  |  |  | eliminated delta and kappa binding | ≥ 10000 | 157 | 157 | eliminated delta and kappa binding | Ki [2]: 63.5 nM; additional reduction of MOR binding by D-Nal substitution of Trp at position 3 [2]: 11 fold; Ki [4]: ≥ 10000 nM
5 | NC(=O)[C@H](CO[C@@H]1O[C@H](CO)[C@@H](O[C@@H]2O[C@H](CO)[C@H](O)[C@H](O)[C@H]2O)[C@H](O)[C@H]1O)NC(=O)[C@@H]1CCC(=O)NCCCC[C@@H](NC(=O)[C@@H](N)Cc2ccc(O)cc2)C(=O)N[C@H](Cc2cccc3ccccc23)C(=O)N[C@@H](Cc2ccccc2)C(=O)N1 [Analog A5] (H-Y[dK][d1Nal]FES(X1)-NH2; lactam 2-5) |  |  |  |  |  |  | eliminated delta and kappa binding | ≥ 10000 | 181 | 181 | eliminated delta and kappa binding | Ki [2]: 55.2 nM; additional reduction of MOR binding by D-Nal substitution of Trp at position 3 [2]: 11 fold; Ki [4]: ≥ 10000 nM
6 | NC(=O)[C@H](CO[C@@H]1O[C@H](CO)[C@@H](O)[C@H](O)[C@H]1O)NC(=O)[C@@H]1CCC(=O)NCCCC[C@@H](NC(=O)[C@@H](N)Cc2ccc(O)cc2)C(=O)NC(Cc2cccc3ccccc23)C(=O)N[C@@H](Cc2ccccc2)C(=O)N1 (some centres unmarked) [Analog A6] (H-Y[dK][ξ1Nal]FES(βGlc)-NH2; lactam 2-5) |  |  | approximately 5 fold |  |  | did not reduce MOR affinity | increased KOR affinity |  | 48 | 57 |  | MOR selectivity, in words ([2]; versus DOR and KOR): least selective compound
7 | NC(=O)[C@H](CO[C@@H]1O[C@H](CO)[C@@H](O)[C@H](O)[C@H]1O)NC(=O)[C@H](CO[C@@H]1O[C@H](CO)[C@@H](O)[C@H](O)[C@H]1O)NC(=O)[C@@H]1CCC(=O)NCCCC[C@@H](NC(=O)[C@@H](N)Cc2ccc(O)cc2)C(=O)N[C@@H](Cc2c[nH]c3ccccc23)C(=O)N[C@@H](Cc2ccccc2)C(=O)N1 [Analog A7, Tyr-c[D-Lys-Trp-Phe-Glu]-Ser(β-Glc)-Ser(β-Glc)-NH2] | A2>A7>A1>morphine>ZH853 | A2>A7>A1>morphine >ZH853 | approximately 5 fold | A2>A7>A1>ZH853>morphine | robust antinociception; also recorded: significantly greater AUC | did not change MOR affinity | below detectable levels |  |  |  | below detectable levels | greater HP effectiveness versus control compounds (AUC) ([3]; 1.8 mg/kg vs 5.6 mg/kg for controls): approximately 3 fold
8 | NC(=O)CNC(=O)[C@@H]1CCC(=O)NCCCC[C@@H](NC(=O)[C@@H](N)Cc2ccc(O)cc2)C(=O)N[C@@H](Cc2c[nH]c3ccccc23)C(=O)N[C@@H](Cc2ccccc2)C(=O)N1 [ZH853, reference compound] | A2>A7>A1>morphine>ZH853 | A2>A7>A1>morphine >ZH853 |  | A2>A7>A1>ZH853>morphine |  | subnanomolar Ki, showed the highest MOR affinity |  | 271 |  |  |  | time of peak response, TF ([1]; s.c.): 30 to 40 min; TF antinociception AUC [1]: 10000; morphine equivalence [7]: about 1
9 | CN1CC[C@]23c4c5ccc(O)c4O[C@H]2[C@@H](O)C=C[C@H]3[C@H]1C5 [morphine, reference compound] |  | A2>A7>A1>morphine >ZH853 |  | A2>A7>A1>ZH853>morphine |  |  |  |  |  |  |  | TF antinociception (full) ([1]; 10 mg/kg, n=6): 100 % MPE; time of peak response, TF ([1]; s.c.): 20 to 30 min; CPP versus vehicle ([8]; 3.2 mg/kg, one-way analysis, p<0.01): greater than vehicle; conditioned place preference (CPP) ([8]; 3 equiantinociceptive doses, s.c., n=12): produced CPP
